Publication PMC6471523, “Biological Evaluation and Docking Analysis of Potent BACE1 Inhibitors from Boesenbergia rotunda” (Nutrients, 2019)
≈ marks a conversion by molar mass, not a printed value.

Legend:
trypsin = experiment: Trypsin absorbance inhibition assay; format: biochemical
Procedure: (§1) Absorbance assays for trypsin, chymotrypsin, and elastase were estimated using N-benzoyl-ʟ-Arg-pNA, N-benzoyl-ʟ-Tyr-pNA, and N-succinyl-Ala-Ala-Ala-pNA as substrates, respectively. Enzyme, Tris-HCl buffer (0.05 M, in 0.02 M CaCl2, pH 8.2), and tested samples were incubated for 10 min at 25 °C then added to the substrate for 30 min at 37 °C. The absorbance was recorded at 410 nm. The inhibition ratio was obtained using the following equation:Inhibition (%) = {[1 − (A − B)]/control} × 100 where A was the absorbance of control (enzyme, assay buffer, and substrate) after 60 min of incubation, and B was the absorbance of the tested sample (assay buffer and sample solution) after 60 min of incubation.

human recombinant TACE = system: T1, human recombinant TACE; experiment: TACE (α-secretase) enzyme inhibitory assay; format: biochemical
T1 construct: purchased R&D Systems (Minneapolis, MN, USA)
Procedure: A human recombinant TACE (0.1 ppm in 25 mM Tris buffer), the substrate (APP peptide […] using EDANS/DABCYL), and samples were dissolved in an assay buffer, which were then combined and incubated for 60 min in the dark at 25 °C. The increase in fluorescence intensity produced by substrate hydrolysis was measured by using a microplate reader with excitation and emission wavelengths of 320 and 405 nm, respectively.

chymotrypsin = system: T2, chymotrypsin; experiment: Chymotrypsin absorbance inhibition assay; format: biochemical
T2 construct: purchased Sigma-Aldrich (St. Louis, MO, USA)
Procedure: as §1

[1] = Physicochemical properties for BBB permeability prediction; settings: inferred from MW, PSA and clog P
Source text: However, few BACE1 inhibitors have been marketed to treat AD due to the difficulty in developing therapeutic agents that can efficiently cross the BBB and reach appropriate concentrations in the cerebral parenchyma, and, moreover, can do so without side effects. Recently, QSAR study approaches have been used to generate predictive models for BBB permeability. […] Cardamonin has a MW of 270.28, a PSA value calculated as 66.76, and a clog P of 4.54, obtained by determining the partition coefficient between n-octanol and water.

BACE1 [2] = target: T3, BACE1 (Homo sapiens, UniProt P56817); experiment: BACE1 inhibition kinetics (Dixon and Lineweaver–Burk plots); format: biochemical; settings: for Inhibition Mode: Dixon and Lineweaver–Burk plots; for Ki: Dixon plot
T3 construct: purchased Invitrogen (Pan Vera, Madison, WI, USA)
Procedure: The dissociation constant (Ki) was obtained by Dixon plot and maximum reaction velocity (Vmax) and Michaelis–Menten constant (Km) values were determined by Lineweaver–Burk plot using SigmaPlot™ version 12.3 (Systat Software, Inc., San Jose, CA, USA).
The type of inhibition and kinetic analysis was determined using a Michaelis–Menten curve, Dixon plot, and Lineweaver–Burk plot (Figure 2). The three lines of the Dixon plots intersected on the x-axis of the same plot (Figure 2b,e,h). […] This pattern indicated non-competitive inhibitory activity against BACE1, thereby interacting with locations other than the active binding site for these compounds. For noncompetitive inhibition of enzymes, the Ki value of inhibitor is essentially the same numerical value as the IC50 [29].

elastase = system: T4, elastase; experiment: Elastase absorbance inhibition assay; format: biochemical
T4 construct: purchased Sigma-Aldrich (St. Louis, MO, USA)
Procedure: as §1

BACE1 [3] = target: T3, BACE1; experiment: In vitro BACE1 enzyme inhibitory assay (fluorescence); format: biochemical; settings: for IC50: 60 min, 25 °C, pH 4.5, mean ± SD of three experiments, read-out: IC50 (mean ± SD) against BACE1
Procedure: Enzyme assays for BACE1, TACE, chymotrypsin, trypsin, and elastase were carried out according to previously described methods [27]. Briefly, reaction mixtures containing human recombinant BACE1 (1.0 U/mL), a specific substrate (Rh-[sequence]-Quencher in 50 mM ammonium bicarbonate), and samples dissolved in an assay buffer (50 mM sodium acetate, pH 4.5) were incubated for 60 min at 25 °C in well plates. […] The inhibition ratio was obtained using the following equation:Inhibition (%) = [1 − (S − S0)/(C − C0)] × 100 where C was the fluorescence of control (enzyme, assay buffer, and substrate) after 60 min of incubation, C0 was the fluorescence of control at time 0, S was the fluorescence of tested samples (enzyme, sample solution, and substrate) after 60 min of incubation, and S0 was the fluorescence of the tested samples at time 0.

HIV-1 protease = system: HIV-1 protease; parameters: method as in earlier work; settings: cited from earlier work
[4] = parameters: method as in PMID 28271112; settings: calculated; in Å2 (unit assumed); cited from earlier work
[5] = parameters: method as in PMID 29066742; settings: 10 mg/kg, 30 weeks; cited from earlier work
BBB = settings: in vitro study; cited from earlier work
Wister rats = settings: 100 mg/kg, 7 days; cited from earlier work
[6] = system: intracerebroventricular Aβ25–35-injected mice; settings: oral, 20 mg/kg, 8 days; cited from earlier work
[7] = system: rat model of global cerebral ischemia-reperfusion; settings: oral, 10 mg/kg, 7 days; cited from earlier work
[8] = system: APP/PS1 transgenic mouse model; settings: 40 mg/kg, 3-month period; cited from earlier work

T3 sequence (P56817 46-501): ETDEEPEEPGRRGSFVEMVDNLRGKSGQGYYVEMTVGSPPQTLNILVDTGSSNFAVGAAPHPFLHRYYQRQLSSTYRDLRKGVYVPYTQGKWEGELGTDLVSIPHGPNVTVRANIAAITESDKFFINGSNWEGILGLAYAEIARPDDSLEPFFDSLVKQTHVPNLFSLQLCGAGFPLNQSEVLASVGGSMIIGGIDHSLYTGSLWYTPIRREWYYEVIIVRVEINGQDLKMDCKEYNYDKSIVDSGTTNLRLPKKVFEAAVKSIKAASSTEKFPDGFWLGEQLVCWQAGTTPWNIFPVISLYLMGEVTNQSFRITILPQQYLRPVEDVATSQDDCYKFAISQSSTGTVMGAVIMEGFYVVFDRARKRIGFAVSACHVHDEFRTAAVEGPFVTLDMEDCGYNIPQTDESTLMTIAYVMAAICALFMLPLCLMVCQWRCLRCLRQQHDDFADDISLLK

Compound | Inhibitory activity (%) Trypsin (trypsin; sample 100 μM) | Inhibitory activity (%) TACE (human recombinant TACE; sample 100 μM) | Inhibitory activity (%) Chymotrypsin (chymotrypsin; sample 100 μM) | Inhibition Mode (BACE1 [2]) | Ki (BACE1 [2]) | Inhibitory activity (%) Elastase (elastase; sample 100 μM) | IC50 (BACE1 [3]) | IC50 HIV-1 protease activity (HIV-1 protease) | Inhibitory activity (%) Trypsin (trypsin; sample 10 μM) | Inhibitory activity (%) TACE (human recombinant TACE; sample 10 μM) | Inhibitory activity (%) Chymotrypsin (chymotrypsin; sample 10 μM) | Toxicity or mutagenic effects after oral administration (Wister rats) | Inhibitory activity (%) Elastase (elastase; sample 10 μM) | also measured
COc1cc(O)cc(O)c1C(=O)/C=C/c1ccccc1 [Cardamonin, 2′,4′-dihydroxy-6′-methoxychalcone] | 3.74 ± 0.53% | 2.69 ± 1.44% | 4.23 ± 0.55% | Noncompetitive | 5.1 µM | 1.41 ± 0.19% | 4.35 ± 0.38 µM | 31.0 µg/mL (≈ 115 µM) | – | – | – | – | – | Inhibitory activity (%) Trypsin (trypsin; sample 50 μM): 1.13 ± 0.18%; Inhibitory activity (%) TACE (human recombinant TACE; sample 50 μM): 1.38 ± 0.36%; Inhibitory activity (%) Chymotrypsin (chymotrypsin; sample 50 μM): 6.20 ± 0.41%; Predicted BBB crossing [1]: predicted to cross the BBB; Inhibitory activity (%) Elastase (elastase; sample 50 μM): 2.29 ± 0.41%; BACE1 IC50 relative to resveratrol (BACE1 [3]; comparison of IC50 values): three-fold higher; BACE1 inhibition relative to pinocembrin and pinostrobin (BACE1 [3]; comparison of IC50 values): six-fold more effective; polar surface area (PSA) [4]: 66.76; Toxicity after chronic oral administration [5]: did not elicit any apparent toxicity
O=C1CC(c2ccccc2)Oc2cc(O)cc(O)c21 (centres unmarked) [Pinocembrin, 5,7-dihydroxyflavanone] | 4.96 ± 0.27% | 6.95 ± 1.52% | 8.61 ± 1.09% | Noncompetitive | 29.3 µM | 2.56 ± 0.08% | 27 ± 2.12 µM | > 100 µg/mL | 4.35 ± 0.26% | 5.15 ± 0.98% | 7.18 ± 1.87% | did not induce any toxicity or mutagenic effects | 3.24 ± 0.19% | BBB crossing in vitro (BBB): could cross the BBB by passive transport partly through P-glycoprotein; Effect on cognitive impairment [6]: significantly improved cognitive impairment; Effect on hippocampal inflammation, oxidative stress and apoptosis [7]: suppressed hippocampal inflammation, oxidative stress, and apoptosis; Effect on cognitive deficits and neurovascular unit [8]: attenuated cognitive deficits and protected the neurovascular unit
COc1cc(O)c2c(c1)OC(c1ccccc1)CC2=O (centres unmarked) [Pinostrobin, 5-hydroxy-7methoxyflavanone] | 1.52 ± 0.05% | 9.19 ± 1.20% | 5.41 ± 0.49% | Noncompetitive | 30.9 µM | 2.63 ± 0.37% | 28.4 ± 1.96 µM | > 100 µg/mL | 3.19 ± 0.16% | 8.53 ± 1.05% | 3.29 ± 0.25% | did not induce any toxicity or mutagenic effects | 5.21 ± 0.41% | –
